Peptide text beside a SMILES is read from it. * marks the point of attachment. Cbz = O=C(OCc1ccccc1)*
Legend:
Ramos B cells = assay: Flow cytometry of cell cycle profile and fluorescent signal; format: cell-based, human; conditions: up to 4 hr of culture; Ramos AID-mCherry transductants
Method: To determine cell cycle distribution, cells were fixed, permeabilized with 0.5% Triton X-100, stained with DAPI (2 μg/ml) and analyzed by FACS.

AID-mCherry = assay: HCS microscopy of AID-mCherry subcellular distribution after LMB / MG132 treatment; format: cell-based, human; conditions: for cytoplasmic AID-mCherry signal, response to treatment / nuclear AID-mCherry signal, increase relative to untreated cells: Ramos AID-mCherry transductants, LMB 50 ng/ml, MG132 50 μM; for nuclear AID-mCherry signal, increase relative to untreated cells: 0-4 hr
Method: We analyzed subcellular distribution of AID in the human B cell line, Ramos, transduced with a lentiviral construct expressing human AID fused to the mCherry fluorescent protein at the C-terminus. Ramos B cells express endogenous AID and actively diversify their Ig genes, so the pathways that regulate and respond to damage by AID are intact. Cells were analyzed by high content screening (HCS) microscopy (43), a […] approach that automatically quantifies signals per unit area (pixels) in each compartment of each cell (FIG. 1A). […] The cytoplasmic signal was unaffected by MG132 treatment, but diminished upon treatment with LMB or LMB+MG132, paralleling the increase in nuclear signal.
The human Burkitt lymphoma cell line, Ramos, was cultured in supplemented RPMI 1640 (Gibco), which contained 10% FBS, 2 mM L-glutamine, penicillin/streptomycin, 1× non-essential amino acids (Gibco), 1 mM sodium pyruvate, and 10 mM HEPES. Lentiviral transductions used 2×10^5 cells cultured in medium containing 8 μg/ml of polybrene. Following transduction, cells were cultured for 3-4 days and these recent transductants then sorted for mCherry+ to enrich for transduced cells, typically constituting 0.1-10% of the population. Cells were treated with leptomycin B (LMB; LC Laboratories) at 50 ng/ml and MG132 (Z-Leu-Leu-Leu-aldehyde; Sigma-Aldrich) at 50 μM. Viable cells were counted after trypan blue staining. Cell viability was confirmed by CellTiter-Glo® Luminescent Cell Viability Assay (Promega).
Cells were fixed in 3.7% formaldehyde at a density of 2×10^6 cells/ml and stained with whole cell stain (HCS CellMask, Invitrogen) and DAPI (0.2 μg/ml). Fixed cells were then washed, resuspended in PBS and spun down in a 96-well μclear microplate (Greiner Bio One) for imaging. Cells were imaged by Thermo Scientific ArrayScan VTI HCS reader, analyzing 3000-6000 cells in each treatment group. Cells with very low or very high mCherry signals were eliminated, gating based on the mock transduction control (low) and eliminating cells with signals more than 5 SD from the mean (high). The HCS Colocalization BioApplication protocol was used to determine nuclear and whole cell boundaries in individual cells as defined by DAPI and HCS CellMask, respectively, thereby defining the cytoplasmic region as the region between nuclear and whole cell boundaries. The average signal in the nuclear and cytoplasmic compartments was determined in individual cells by measuring the total intensity of mCherry signal divided by area within each compartment. The ratio of nuclear to cytoplasmic signal (N/C) was calculated as the ratio of the average signals of nuclear and cytoplasmic mCherry.
G1, S, and G2/M phase cells were distinguished by ranking DNA content as determined by total DAPI signal, and specific fractions of the population assigned to G1, S and G2/M phases (FIG. 16A). HCS results were expressed in terms of average signal, to ensure independence of cell size, which increases during cell cycle (FIG. 16).

Row | SMILES | effect of treatment on cell cycle (Ramos B cells) | cytoplasmic AID-mCherry signal, response to treatment (AID-mCherry) | nuclear AID-mCherry signal, increase relative to untreated cells (AID-mCherry) | effect on nuclear or cytoplasmic AID-mCherry signals (AID-mCherry; any phase of cell cycle) | drop of cytoplasmic AID-mCherry signal (AID-mCherry; all stages of cell cycle (G1, S, G2/M)) | N/C ratio of AID-mCherry signal (AID-mCherry; representative cell, 0.5 hr LMB (untreated 0.80))
1 | CC(C)C[C@@H](C=O)NC(=O)[C@H](CC(C)C)NC(=O)[C@H](CC(C)C)NC(=O)OCc1ccccc1 [MG132, Z-Leu-Leu-Leu-aldehyde] (Cbz-Leu-Leu-Leu-aldehyde) | not perturbed significantly | unaffected | unaffected | little effect |  | 
2 | CCC(=C/[C@H](C)C/C=C/C(C)=C/[C@@H](C)C(=O)[C@@H](C)[C@H](O)[C@@H](C)C/C(C)=C/C(=O)O)/C=C/[C@@H]1OC(=O)C=C[C@@H]1C [LMB, leptomycin B] | not perturbed significantly | diminished | 1.5 fold |  | 50% | 1.34

Reference: patent US20160369258A1, “RESTRICTING NUCLEAR PROTEIN TO SPECIFIC PHASES OF THE CELL CYCLE” (UNIVERSITY OF WASHINGTON, priority 2014, published 2016)
